Source: US7662784B2, “Method for decreasing body weight using a somatostatin receptor agonist” (Ipsen Pharma, S.A.S., priority 1997, dated 2010)
Bridge positions count the residues as written; N and C are the ends. Square brackets hold non-standard residues; d marks the D form. Peptide text beside a SMILES is read from it.

Assays:
[1] = system: Obese (fa/fa) Zucker rats; experiment: Secondary endpoints: plasma glycerol and triglycerides after 6-day treatment, oral glucose challenge; assay type: in vivo, rat
Protocol: Obese (fa/fa) Zucker rats were treated as in example 1 above. On the last day of treatment (day 6), food was removed at 5:00 p.m., and the rats were fasted overnight. At 9:00 a.m. the next day, the animals were subjected to a glucose challenge, given as 0.8 gram/kg of glucose orally. Periodic 400 μl of blood samples were taken from the tail vein (Peterson, R. G., ILAR News, 32:16-19 (1990)) 60 min. and 30 min. before and at 30, 60, 90, and 120 min. after the administration of the glucose challenge (0.8 gram/kg orally). Aprotinin (Traysylol, Bayer UK, Hayward's Health, W. Sussex, U.K. and heparin (Sigma Chemical Co., Poole, Dorset, U.K.) were added to the blood samples to a final concentration of 400 KIU/ml and 100 units/ml, respectively. Plasma fractions were prepared from these samples by centrifugation at 4000×G in a microfuge, for the estimation of triglycerides and glycerol. Samples were then stored at −80° C. until assayed.
Plasma glycerol and triglycerides were determined using the Sigma Enzymatic (Tinder) calorimetric assay kit (Cat #337-B, Sigma Chemical Co., Poole, Dorset, U.K.) and measuring absorbance at 540 nm in a spectrophotometer.

[2] = system: fatty (fa/fa) Zucker rats; experiment: Weight loss study, chronic (6 day) treatment in obese animal model
[3] = after six days at 3 mg/kg s.c. twice a day, samples 30 and 60 minutes before the oral glucose challenge
[4] = throughout the 2-hour test period after oral glucose challenge (0.8 gram/kg)
[5] = 3 mg/kg s.c. twice a day for six days, fatty Zucker rats

Structure (SMILES): C[C@@H](O)[C@@H]1NC(=O)[C@H](CCCCN)NC(=O)[C@@H](Cc2c[nH]c3ccccc23)NC(=O)[C@H](Cc2ccccc2)NC(=O)[C@H](Cc2ccccc2)NC(=O)[C@@H](N)CSSC[C@@H](C(N)=O)NC(=O)[C@H](Cc2ccccc2)NC1=O [BIM-23268, H-Cys-Phe-Phe-D-Trp-Lys-Thr-Phe-Cys-NH2] (H-CFF[dW]KTFC-NH2; disulfide 1-8)
- reducing hypertriglyceridemia ([1]; 6-day treatment period at the prescribed dose (3 mg/kg s.c. twice a day)): effective in reducing hypertriglyceridemia
- plasma glycerol [1, 3]: significantly lowered
- plasma triglycerides [1, 3]: significantly lowered
- plasma glycerol [1, 4]: significantly lower
- plasma triglycerides [1, 4]: significantly lower
- amount of food consumed over the entire treatment period versus control ([2]; 3 mg/kg s.c. twice a day for six days): no difference
- body weight gain versus control [2, 5]: lower
- toxic effect / appearance of treated group [2, 5]: appeared healthy
- average food consumption ([2]; 3 mg/kg s.c. twice a day, 6-day treatment, control 26.0): 25.9 g/rat/day
- treated group's mean weight after six days ([2]; male fatty Zucker rats, 3 mg/kg s.c. twice a day for six days, control 418.89): 413.6
- treated group's mean weight at the start of the trial ([2]; male fatty Zucker rats, before 3 mg/kg s.c. twice a day, control 414.09): 413.6
